In US9512128B2 (BAYER CROPSCIENCE AG, priority 2012, dated 2016):
Read-outs that look alike come from different tables or passages of the source.

Assay: log P by HPLC on reversed-phase columns (C 18), EEC directive 79/831 Annex V.A8
Format: physicochemical
Details: for chromatographic logP: reversed-phase C18 HPLC column; for logP[a]: method [a]; for logP[b]: method [b]
Method: The log P values were determined according to EEC directive 79/831 Annex V.A8 by HPLC (High Performance Liquid Chromatography) on reversed-phase columns (C 18), using the methods below:
[a] The LC-MS determination in the acidic range is carried out at pH 2.7 with 0.1% aqueous formic acid and acetonitrile (contains 0.1% formic acid) as mobile phases; linear gradient from 10% acetonitrile to 95% acetonitrile.
[b] The LC-MS determination in the neutral range is carried out at pH 7.8 using the mobile phases 0.001 molar aqueous ammonium bicarbonate solution and acetonitrile; linear gradient from 10% acetonitrile to 95% acetonitrile.

[1] = pH 2.7, acidic range, pH 2.7, 0.1% aqueous formic acid / acetonitrile, read-out: log P[a]
[2] = pH 7.8, neutral range, pH 7.8, 0.001 molar aqueous ammonium bicarbonate / acetonitrile, read-out: log P[b]
[3] = pH 2.7, method [a], read-out: logP[a]
[4] = pH 7.8, method [b], read-out: logP[b]

Compound | logP[a] | logP[b] | other results
Cc1ccc(Br)cc1SSc1cc(Br)ccc1C | – | – | chromatographic logP [1]: > 7.36; chromatographic logP [2]: > 7.36
Cn1ncc2c(=O)n(-c3cc([S+]([O-])CC(F)(F)F)c(Cl)cc3Cl)cnc21 (racemic) [Compound 4] | 2.11 | 2.09 | –
Cc1cc(C)c([S+]([O-])CC(F)(F)F)cc1-n1cnc2c(cnn2C)c1=O (racemic) [Compound 9] | 1.74 | 1.74 | –
Cc1cc(C)c([S+]([O-])CC(F)(F)F)cc1-n1c(C)nc2c(cnn2C)c1=O (racemic) [Compound 10] | 1.86 | 1.84 | –
Cc1cc(F)c(-n2c(C)nc3c(cnn3CC(F)(F)F)c2=O)cc1[S+]([O-])CC(F)(F)F (racemic) [Compound 22] | 2.52 | – | –
Cc1cc(C)c([S+]([O-])CC(F)(F)F)cc1-n1cnc2c(ncn2C)c1=O (racemic) [Compound 58] | 1.43 | 1.40 | –
Cc1cc(C)c([S+]([O-])CC(F)(F)F)cc1-n1c(C)nc2c(ncn2C)c1=O (racemic) [Compound 59] | 1.52 | 1.50 | –
Cc1ccc(B2OC(C)(C)C(C)(C)O2)cc1SCC(F)(F)F [4,4,5,5-Tetramethyl-2-{4-methyl-3-[(2,2,2-trifluoroethyl)sulphanyl]phenyl}-1,3,2-dioxaborolane] | – | – | chromatographic logP [1]: 3.73; chromatographic logP [2]: 3.74
Cc1cc(F)c(NC(=O)c2cnn(C)c2N)cc1SCC(F)(F)F [5-Amino-N-{2-fluoro-4-methyl-5-[(2,2,2-trifluoroethyl)sulphanyl]phenyl}-1-methyl-1H-pyrazole-4-carboxamide] | – | – | chromatographic logP [1]: 2.44; chromatographic logP [2]: 2.23
Cc1ccc(Br)cc1S(=O)(=O)Cl [5-Bromo-2-methylbenzenesulphonyl chloride] | – | – | chromatographic logP [1]: 3.73; chromatographic logP [2]: 3.74
Cc1nc2c(cnn2C)c(=O)n1-c1cc(SCC(F)(F)F)c(Cl)cc1Cl [Compound 5] | 3.18 | 3.11 | –
Cc1cc(C)c(-n2c(C)nc3c(cnn3C)c2=O)cc1SCC(F)(F)F [Compound 6] | 2.92 | 2.86 | –
Cc1cc(C)c(-n2c(C(F)(F)F)nc3c(cnn3C)c2=O)cc1SCC(F)(F)F [Compound 11] | 3.83 | 3.77 | –
Cc1cc(F)c(-n2c(C(F)(F)F)nc3c(cnn3C)c2=O)cc1SCC(F)(F)F [Compound 13, 5-{2-Fluoro-4-methyl-5-[(2,2,2-trifluoroethyl)sulphanyl]phenyl}-1-methyl-6-(trifluoromethyl)-1,5-dihydro-4H-pyrazolo[3,4-d]pyrimidin-4-one] | – | – | chromatographic logP [1]: 3.75; chromatographic logP [3]: 3.75; chromatographic logP [4]: 3.94; chromatographic logP [2]: 3.94
Cc1cc(F)c(-n2c(C)nc3c(cnn3C)c2=O)cc1SCC(F)(F)F [Compound 14, 5-{2-Fluoro-4-methyl-5-[(2,2,2-trifluoroethyl)sulphanyl]phenyl}-1,6-dimethyl-1,5-dihydro-4H-pyrazolo[3,4-d]pyrimidin-4-one] | – | – | chromatographic logP [1]: 2.84; chromatographic logP [3]: 2.84; chromatographic logP [4]: 2.79; chromatographic logP [2]: 2.79
Cc1cc(F)c(-n2c(C(F)(F)F)nc3c(cnn3C)c2=O)cc1[S+]([O-])CC(F)(F)F (stereo not shown) [Compound 16, 5-{2-Fluoro-4-methyl-5-[(2,2,2-trifluoroethyl)sulphinyl]phenyl}-1-methyl-6-(trifluoromethyl)-1,5-dihydro-4H-pyrazolo[3,4-d]pyrimidin-4-one] | – | – | log P[a] (acidic range, pH 2.7, 0.1% aqueous formic acid / acetonitrile): 2.74; log P[b] (neutral range, pH 7.8, 0.001 molar aqueous ammonium bicarbonate / acetonitrile): 2.70; chromatographic logP [1]: 2.67; chromatographic logP [3]: 2.67; chromatographic logP [4]: 2.63; chromatographic logP [2]: 2.63
Cc1cc(F)c(-n2c(C(F)(F)F)nc3nn(C)cc3c2=O)cc1SCC(F)(F)F [Compound 42] | 3.27 | 3.19 | –
Cc1cc(C)c(-n2c(C)nc3c(ncn3C)c2=O)cc1SCC(F)(F)F [Compound 56] | 2.36 | 2.35 | –
O=c1c2ncsc2ncn1-c1cc([S+]([O-])CC(F)(F)F)c(Cl)cc1Cl (stereo not shown) [Compound 67] | 1.96 | 1.96 | –
Cc1nc2c(=O)n(-c3cc([S+]([O-])CC(F)(F)F)c(Cl)cc3Cl)cnc2s1 (stereo not shown) [Compound 74] | 2.22 | 2.17 | –
O=c1c2scnc2ncn1-c1cc([S+]([O-])CC(F)(F)F)c(Cl)cc1Cl (stereo not shown) [Compound 80] | 2.01 | 1.98 | –
Cc1cc(C)c([S+]([O-])CC(F)(F)F)cc1-n1cnc2ncsc2c1=O (stereo not shown) [Compound 81] | 1.65 | 1.62 | –
Cc1ccc(-n2cnc3sccc3c2=O)cc1SCC(F)(F)F [Compound 83, 3-{4-Methyl-3-[(2,2,2-trifluoroethyl)sulphanyl]phenyl}thieno[2,3-d]pyrimidin-4(3H)-one] | – | – | chromatographic logP [1]: 3.04; chromatographic logP [3]: 3.09; chromatographic logP [4]: 3.01; chromatographic logP [2]: 3.02

The next lines start with results.

logP[a] | logP[b] | Compound | other results
1.80 | 1.80 | Cn1ncc2c(=O)n(-c3ccc(Cl)c([S+]([O-])CC(F)(F)F)c3)cnc21 (racemic) [Compound 28] | –
2.16 | 2.11 | Cn1ncc2c(=O)n(-c3ccc(C(F)(F)F)c([S+]([O-])CC(F)(F)F)c3)cnc21 (racemic) [Compound 29] | –
2.94 | 2.94 | Cn1ncc2c(=O)n(-c3cc(SCC(F)(F)F)c(Cl)cc3Cl)cnc21 [Compound 3] | –
2.79 | 2.73 | Cc1cc(C)c(-n2cnc3c(cnn3C)c2=O)cc1SCC(F)(F)F [Compound 7] | –
2.56 | 2.54 | Cc1ccc(-n2cnc3c(cnn3C)c2=O)cc1SCC(F)(F)F [Compound 8] | –
3.31 | 3.21 | Cc1cc(F)c(-n2cnc3c(cnn3CC(F)(F)F)c2=O)cc1SCC(F)(F)F [Compound 17] | –
2.58 | 2.53 | Cn1ncc2c(=O)n(-c3ccc(Cl)c(SCC(F)(F)F)c3)cnc21 [Compound 23] | –
2.07 | 2.06 | Cn1ncc2c(=O)n(-c3ccc(C#N)c(SCC(F)(F)F)c3)cnc21 [Compound 24] | –
2.82 | 2.75 | Cn1ncc2c(=O)n(-c3ccc(C(F)(F)F)c(SCC(F)(F)F)c3)cnc21 [Compound 25] | –
2.81 | 2.73 | Cc1ccc(-n2cnc3c(c(C)nn3C)c2=O)cc1SCC(F)(F)F [Compound 30] | –
3.06 | 2.99 | Cc1nn(C)c2ncn(-c3ccc(C(F)(F)F)c(SCC(F)(F)F)c3)c(=O)c12 [Compound 31] | –
1.74 | 1.70 | Cc1nn(C)c2ncn(-c3ccc(C#N)c([S+]([O-])CC(F)(F)F)c3)c(=O)c12 (stereo not shown) [Compound 35] | –
2.38 | 2.33 | Cc1ccc(-n2cnc3nn(C)c(C)c3c2=O)cc1SCC(F)(F)F [Compound 44] | –
2.45 | 2.36 | Cc1c2c(=O)n(-c3ccc(Cl)c(SCC(F)(F)F)c3)cnc2nn1C [Compound 48] | –
1.99 | 1.92 | Cc1c2c(=O)n(-c3ccc(C#N)c(SCC(F)(F)F)c3)cnc2nn1C [Compound 50] | –
2.28 | 2.23 | Cc1cc(C)c(-n2cnc3c(ncn3C)c2=O)cc1SCC(F)(F)F [Compound 55] | –
2.19 | 2.17 | Cn1cnc2c(=O)n(-c3cc(SCC(F)(F)F)c(Cl)cc3F)cnc21 [Compound 57] | –
2.67 | 2.64 | Cc1cc(C)c(-n2cnc3scnc3c2=O)cc1SCC(F)(F)F [Compound 62] | –
3.55 | 3.51 | Cc1cc(F)c(-n2c(C(F)(F)F)nc3scnc3c2=O)cc1SCC(F)(F)F [Compound 65] | –
3.09 | 3.02 | Cc1nc2c(=O)n(-c3cc(SCC(F)(F)F)c(Cl)cc3Cl)cnc2s1 [Compound 71] | –
2.79 | 2.76 | O=c1c2scnc2ncn1-c1cc(SCC(F)(F)F)c(Cl)cc1Cl [Compound 77] | –
2.75 | 2.71 | COc1ccc(-n2cnc3sccc3c2=O)cc1SCC(F)(F)F [Compound 84] | –
3.09 | 3.03 | O=c1c2ccsc2ncn1-c1ccc(Cl)c(SCC(F)(F)F)c1 [Compound 85] | –
3.51 | 3.42 | O=c1c2ccsc2ncn1-c1cc(SCC(F)(F)F)c(Cl)cc1Cl [Compound 90] | –
2.48 | 2.46 | N#Cc1ccc(-n2cnc3sccc3c2=O)cc1SCC(F)(F)F [Compound 93] | –
3.27 | 3.21 | O=c1c2ccsc2ncn1-c1ccc(C(F)(F)F)c(SCC(F)(F)F)c1 [Compound 94] | –
2.53 | 2.53 | O=c1c2ccsc2ncn1-c1cc([S+]([O-])CC(F)(F)F)c(Cl)cc1Cl (stereo not shown) [Compound 98] | –
2.54 | 2.51 | O=c1c2ccsc2ncn1-c1ccc(C(F)(F)F)c([S+]([O-])CC(F)(F)F)c1 (stereo not shown) [Compound 99] | –
2.87 | 2.79 | Cc1ccc(-n2cnc3ccsc3c2=O)cc1SCC(F)(F)F [Compound 100] | –
1.82 | 1.81 | Cc1ccc(-n2cnc3ccsc3c2=O)cc1[S+]([O-])CC(F)(F)F (stereo not shown) [Compound 101] | –
